From patent US7160862B2, “Integrin binding motif containing peptides and methods of treating skeletal diseases” (Acologix, Inc., priority 2000, dated 2007)
Where no end group is shown, it is not given here.

Tests used:
[1] = tested on: calvaria from 4-days-old mice; test: Fetal mouse calvarial assay (mouse calvarial organ culture, histomorphometry of new bone area); format: cell-based; conditions: 7-day organ culture of mouse calvaria halves in BGj medium with 0.1% BSA
Procedure: FGF-1 was purchased from Peprotech Inc. (Rocky Hill, N.J.). RGD-1, 2, 3, 4, 5 and 6 (referred to here as D-00001, D-00002, D-00003, D-00004, D-00005 and D-00006) were provided by Dr. Nomizu (Hokkaido University, Japan).
Pregnant ICR mice were purchased from SLC Japan Co. Ltd. (Shizuoka, Japan).
Mouse calvarial organ culture was performed as described in Mundy G et al. Science 286: 1946–1949, 1999 and Traianedes K et al. Endocrinology 139: 3178–3184, 1998. The calvaria from 4-days-old mice were excised and cut in half along the sagittal suture. Each half of the calvaria was placed on a stainless steel grid in a 12-well tissue culture dish (Asahi Glass Techno Corp., Funabashi, Japan). Each well contained 1.5 ml of BGj medium (Sigma, St. Louis, Mo.) supplemented with 0.1% bovine serum albumin (Sigma) and each compound. FGF-1 was used as a positive control as described by Mundy et al. The medium was changed at day 1 and 4, and the assay was terminated at day 7.
Calvaria was fixed with 10% neutral-buffered formalin, decalcified with 4.13% EDTA and embedded in paraffin. […] sections were made and stained with hematoxylin and eosin. New bone area was measured using Image-Pro Plus (Media Cybernetics, Silver Spring, Md.).

[2] = tested on: calvariae of four week old mice; test: In vivo bone formation study (mouse calvaria growth assay); conditions: for bone area of calvaria sections compared to vehicle treated group: s.c. adjacent to calvariae twice a day for five days, D-00006 20 μg/kg/day, FGF-1 12.5 μg/kg/day, excised 15 days after last administration
Procedure: FGF-1 was purchased from Peprotech Inc. (Rocky Hill, N.J.). RGD-6 (referred to here as D-00006) was synthesized by CS Bio (San Carlos, Calif.) under the instruction of the inventors.
Four week old mice were purchased from SLC Japan Co. Ltd. (Shizuoka, Japan) and randomized to three groups (n=5).
D-00006 (20 μg/kg/day), FGF-1 (12.5 μg/kg/day), or vehicle (saline) was subcutaneously injected into the soft tissues adjacent to the calvariae of the test animals. The daily amount of the samples were divided by two, respectively, and injected twice a day for five days. After 15 days of the last administration, the calvariae were excised and cut in half along the sagittal suture, and provided to the Histomorphometrical analysis.
Calvaria was fixed with 10% neutral-buffered formalin, decalcified with 4.13% EDTA and embedded in paraffin. 4mm-thickness sections were made and stained with hematoxylin and eosin. New bone area was measured using Image-Pro Plus (Media Cybernetics, Silver Spring, Md.).

[3] = tested on: ovariectomized female Sprague-Dawley rats; test: Effect on renal phosphate excretion in ovariectomized rats (serum and urine chemistry); format: in vivo, rat; conditions: Ovx rats, D-00006 20 and 200 μg/kg/day
Description: Forty 3-month old virgin female Sprague-Dawley rats (Harlan Sprague Dawley, Inc.) were acclimated for one week prior to beginning the experiments.
One day prior to the initiation of treatments, the animals were anesthetized with a ketamin/xylazine anesthetic mixture, and animals in groups 2–5 were ovariectomized.
Urine was collected in metabolic cages on Day 41. Blood and urine samples were collected for chemistry and bone turnover markers assays at the end of the 41-day treatment period. Prior to urine and blood collections, the animals were placed in metabolic cages and deprived of food for an overnight fast period of 18 hours. Urine samples were collected and the volumes recorded. The urine samples were then centrifuges at approximately 3000×g for 10 minutes in a refrigerated centrifuge. The samples were filtered to remove contaminating sediments.

Substance | ability to enhance bone growth (new bone area) [1] | efficacy on bone area relative to FGF-1 ([2]; D-00006 20 μg/kg/day vs FGF-1 12.5 μg/kg/day) | bone area of calvaria sections compared to vehicle treated group [2] | serum phosphorus ([3]; 41-day treatment) | total amount of phosphorus in the 18-hour urine collections ([3]; Day 41) | percentage of tubular reabsorption of phosphorus ([3]; derived urine parameter) | phosphate clearance ([3]; derived urine parameter)
ERGDNDISPFSGDGQ (ERGDNDISPFSGDGQ-NH2) [D-00004] | best results |  |  |  |  |  | 
TDLQERGDNDISPFSGDGQPFKD [D-00006] | best results | equivalent to that of FGF-1 | significant expansion of bone area | dose-dependent increase | significant decrease | higher | lower
FGF-1: fibroblast growth factor-1 purchased from Peprotech Inc., used as a positive control [reference compound] |  |  | significant expansion of bone area |  |  |  | 
